This note sets out measurements from US9499811B2, “Ligation enhancement” (New England Biolabs, Inc., priority 2011, dated 2016).

The target in assay [1] is T1, T4 DNA ligase (Enterobacteria phage T4, UniProt P00970).
T1 sequence (P00970 1-487): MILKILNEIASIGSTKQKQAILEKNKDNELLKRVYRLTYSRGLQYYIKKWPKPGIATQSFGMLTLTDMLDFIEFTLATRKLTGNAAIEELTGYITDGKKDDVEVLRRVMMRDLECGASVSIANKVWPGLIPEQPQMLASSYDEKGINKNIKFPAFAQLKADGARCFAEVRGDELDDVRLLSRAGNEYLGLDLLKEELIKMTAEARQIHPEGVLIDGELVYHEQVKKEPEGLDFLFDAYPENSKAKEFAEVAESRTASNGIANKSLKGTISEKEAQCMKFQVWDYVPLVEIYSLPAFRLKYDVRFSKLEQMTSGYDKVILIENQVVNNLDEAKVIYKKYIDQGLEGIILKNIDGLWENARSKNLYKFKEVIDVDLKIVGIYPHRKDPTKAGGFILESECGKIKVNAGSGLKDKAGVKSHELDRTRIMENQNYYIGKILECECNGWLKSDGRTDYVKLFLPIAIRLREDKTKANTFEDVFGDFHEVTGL
Description: Ligation of one, two or three pUC19 fragments with single-base overhangs, transformation and gel analysis. Type of assay: biochemical. Set-up: purchased NEB (New England Biolabs), Ipswich, Mass. #M0202. The conditions noted are these: for Ligation/Subsequent Transformation Enhancement: 12% 1,2-PrD vs none; for Transformation Efficiency +1,2-PrD / Resultant Colonies +1,2-PrD: 12% 1,2-PrD; for Resultant Colonies +1,2-PrD: 20 pg DNA plated. As for the experimental part: FIGS. 4A-C show agarose gel electrophoresis analysis of ligation products achieved using +/−12% 1,2-PrD for one, two and three pUC19 fragment sets as described in FIGS. 3A-C. The marker lane indicated by M corresponds to 1 μg of a 2-log DNA ladder, New England Biolabs, Inc. (NEB), Ipswich, Mass., #3200. (1) is a 2686-bp linear AhdI-pUC19 fragment; (2) are 1527-bp and 1159-bp BciVI fragments; (3) are 2 lengths (2275-bp and 287-bp) of 3 BccI fragments where the third 124-bp fragment is not visible on the gel; (4) is a linearized intermediate ligation product formed by 2275-bp and 287-bp BccI fragments; (5) is the desired ligated/circularized plasmid which is a highly transformable desired product; and (6) are different kinds of linear and circular undesired concatameric ligation products which are not highly transformable.
For chemically competent cell transformations, the cell-DNA mixture was incubated on ice for 30 min, heat-shocked at 42° C. for 30 sec, then returned to ice for 5 min. A volume of 950 μl SOC medium (2% vegetable peptone or Tryptone, 0.5% yeast extract, 10 mM NaCl, 2.5 mM KCl, 10 mM MgCl2, 10 mM MgSO4 and 20 mM glucose) was added to the cell-DNA mixture, followed by a one hr 37° C. outgrowth period with agitation. A volume of 25-50 μl of appropriately diluted cells in SOC was spread onto Rich Agar plates (composition per liter: 10 g soy peptone, 5 g yeast extract, 10 g NaCl, 1 g MgCl2-6H2O, 1 g dextrose, 15 grams agar) supplemented with 100 μg/ml ampicillin. Plates were inverted and incubated for 16 hrs at 37° C., followed by quantification of total colony numbers.
Single fragment ligation (recircularization), two fragment ligation (cloning) and three fragment ligation (assembly) reactions were performed in the presence of 1,2-PrD (see FIGS. 3A-C). Restriction digests of pUC19 plasmid constructs were performed to completion by monitoring the reactions using 1% agarose gel electrophoresis. Upon completion all restriction enzymes were heat-inactivated by incubating the reaction for 20 min at 65° C. The DNA was purified by use of QiaQuick® (Qiagen, Valencia, Calif.) spin columns and quantified by comparison to known DNA standards by 1% agarose gel electrophoresis. […] Ligation reactions were performed as described in FIGS. 3A-C using 100 ng of DNA that had been restricted by AhdI, BciVI or BccI to leave a variety of single-base overhangs. From each 21 μl ligation reaction, 2 μl was used for transformation as analyzed in Table 4 and 19 μl was run on a 1% agarose gel prepared with tris-borate as described in FIGS. 4A-C. […] This is the highly transformable DNA circularized form.
The ligations took place with and without 12% 1,2-PrD present for 10 min at room temperature (25° C.) with 2000 units T4 DNA ligase. A volume of 2 μl from each ligation reaction was transformed into chemically competent DH5 alpha cells as described in Example 1. A volume of 40 μl of a 1:20 dilution of the outgrowth in SOC medium was plated on medium Rich Agar plates supplemented with ampicillin. This volume corresponded to 20 pg of DNA from the original ligation reaction.

Assay [2] addresses T1, T4 DNA ligase. Description: Ligase activity titer assay with blunt-ended PhiX174-HaeIII fragments, agarose gel. It is filed as biochemical. More on the design: purchased NEB (New England Biolabs), Ipswich, Mass. #M0202. The conditions noted are these: 6% 1,2-PrD, two-fold ligase dilution series, 30 min 25 C. As for the experimental part:
The ligase activity in the absence and presence of 6% 1,2-PrD was determined in a two-fold ligase dilution series. The symbol “*” denotes equivalent levels of ligation, showing that ligation efficiency was enhanced 4-fold. The first and last lanes contain DNA markers.
The effectiveness of the ligation enhancer was also established for blunt-ended DNA as follows: 20 μl reactions were set up containing two-fold serial dilutions of 2000 units of T4 DNA ligase, 200 ng PhiX174-HaeIII digest (NEB, Ipswich, Mass., #N3026), and regular ligase buffer with 200 ng phiX174-HaeIII blunt-ended fragments per 20 μl, in the absence and presence of 6% 1,2-PrD. The reactions were incubated for 30 min at room temperature (25° C.) followed by electrophoresis on a 1% agarose gel. 1,2-PrD enhanced T4 DNA ligase activity 4-fold in this titer reaction.

Where [3] appears, read: 1 fragment (AhdI-linearized pUC19).

`CC(O)CO` (centres unmarked) [1,2-PrD, 1,2-propanediol]: the “Ligation/Subsequent Transformation Enhancement” value on T4 DNA ligase [1] (setting [3]) is listed as 12-fold; on T4 DNA ligase [1] (2 fragments (BciVI-pUC19)), “At least 35-fold”; on T4 DNA ligase [1] (3 fragments (BccI-pUC19)), 18-fold. Also, the figures for the “Transformation Efficiency +1,2-PrD” value at T4 DNA ligase [1] (setting [3]), on T4 DNA ligase [1] (2 fragments (BciVI-pUC19)) and at T4 DNA ligase [1] (3 fragments (BccI-pUC19)) were 51.4 × 10e^6/μg DNA, 1.8 × 10e^6/μg DNA and 1.85 × 10e^6/μg DNA, respectively. Further, the “Resultant Colonies +1,2-PrD” value on T4 DNA ligase [1] (1 fragment (AhdI-linearized pUC19), 2000 units T4 DNA ligase, 10 min 25 C) was 1027; on T4 DNA ligase [1] (2 fragments (BciVI-pUC19)), 35; at T4 DNA ligase [1] (3 fragments (BccI-pUC19)), 37. Moreover, the “Amount of ligated circularized plasmid on agarose gel” value at T4 DNA ligase [1] (+/-12% 1,2-PrD, one, two and three pUC19 fragment sets (FIGS. 4A-C)) was “significant beneficial effect on the amount of ligated circularized plasmid”. At T4 DNA ligase [2], the “Enhancement of T4 DNA ligase activity (ligation efficiency) in titer reaction” value stood at 4 fold.
